Test results: PubChem BioAssay (NCI)
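In this assay, cells in 96-well plates receive the compound at five concentrations for 48 hours. Endpoints are linearly interpolated between the surrounding concentrations. The concentration for full growth arrest is given as TGI.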

Tests used:
Assay in all cases: growth of human tumour cells (NCI), 48 h
SNB-75 CNS = test system: SNB-75 CNS
PC-3 prostate = test system: PC-3 prostate
HCC-2998 colon = test system: HCC-2998 colon
K-562 leukemia = test system: K-562 leukemia
BT-549 breast = test system: BT-549 breast
DU-145 prostate = test system: DU-145 prostate
U251 CNS = test system: U251 CNS
SNB-19 CNS = test system: SNB-19 CNS
IGROV1 ovarian = test system: IGROV1 ovarian
SK-MEL-28 melanoma = test system: SK-MEL-28 melanoma
SK-MEL-5 melanoma = test system: SK-MEL-5 melanoma
KM12 colon = test system: KM12 colon
SW-620 colon = test system: SW-620 colon
786-0 renal = test system: 786-0 renal
OVCAR-8 ovarian = test system: OVCAR-8 ovarian
M14 melanoma = test system: M14 melanoma
UACC-257 melanoma = test system: UACC-257 melanoma
A549 NSCLC = test system: A549 NSCLC
MALME-3M melanoma = test system: MALME-3M melanoma
MDA-MB-231 breast = test system: MDA-MB-231 breast
T-47D breast = test system: T-47D breast
OVCAR-4 ovarian = test system: OVCAR-4 ovarian
HOP-92 NSCLC = test system: HOP-92 NSCLC
ACHN renal = test system: ACHN renal
OVCAR-5 ovarian = test system: OVCAR-5 ovarian
MDA-MB-435 = test system: MDA-MB-435
NCI/ADR-RES ovarian = test system: NCI/ADR-RES ovarian
OVCAR-3 ovarian = test system: OVCAR-3 ovarian
SK-MEL-2 melanoma = test system: SK-MEL-2 melanoma
RPMI-8226 leukemia = test system: RPMI-8226 leukemia
HOP-62 NSCLC = test system: HOP-62 NSCLC
MCF7 breast = test system: MCF7 breast
RXF 393 renal = test system: RXF 393 renal
NCI-H460 lung = test system: NCI-H460 lung
CAKI-1 renal = test system: CAKI-1 renal
UO-31 renal = test system: UO-31 renal
NCI-H522 lung = test system: NCI-H522 lung
HCT-15 colon = test system: HCT-15 colon
SF-295 CNS = test system: SF-295 CNS
HCT-116 colon = test system: HCT-116 colon
SK-OV-3 ovarian = test system: SK-OV-3 ovarian
SF-268 CNS = test system: SF-268 CNS
HT29 colon = test system: HT29 colon
NCI-H23 lung = test system: NCI-H23 lung
COLO 205 colon = test system: COLO 205 colon
EKVX NSCLC = test system: EKVX NSCLC
A498 renal = test system: A498 renal
UACC-62 melanoma = test system: UACC-62 melanoma
MDA-N = test system: MDA-N
MOLT-4 leukemia = test system: MOLT-4 leukemia
HS 578T breast = test system: HS 578T breast
TK-10 renal = test system: TK-10 renal
SF-539 CNS = test system: SF-539 CNS
CCRF-CEM leukemia = test system: CCRF-CEM leukemia
LOX IMVI melanoma = test system: LOX IMVI melanoma
SN12C renal = test system: SN12C renal
SR leukemia = test system: SR leukemia
NCI-H226 lung = test system: NCI-H226 lung
HL-60(TB) leukemia = test system: HL-60(TB) leukemia

Structure (SMILES): COC(=O)C1CC=C(SC(=O)c2ccccc2)N1C(=O)c1ccccc1 (stereo not given)
- TGI (SNB-75 CNS): > 100 µM
- TGI (PC-3 prostate): > 100 µM
- TGI (HCC-2998 colon): > 100 µM
- TGI (K-562 leukemia): > 100 µM
- TGI (BT-549 breast): > 100 µM
- TGI (DU-145 prostate): > 100 µM
- TGI (U251 CNS): > 100 µM
- TGI (SNB-19 CNS): > 100 µM
- TGI (IGROV1 ovarian): > 100 µM
- TGI (SK-MEL-28 melanoma): > 100 µM
- TGI (SK-MEL-5 melanoma): > 100 µM
- TGI (KM12 colon): > 100 µM
- TGI (SW-620 colon): > 100 µM
- TGI (786-0 renal): > 100 µM
- TGI (OVCAR-8 ovarian): > 100 µM
- TGI (M14 melanoma): > 100 µM
- TGI (UACC-257 melanoma): > 100 µM
- TGI (A549 NSCLC): > 100 µM
- TGI (MALME-3M melanoma): > 100 µM
- TGI (MDA-MB-231 breast): > 100 µM
- TGI (T-47D breast): > 100 µM
- TGI (OVCAR-4 ovarian): > 100 µM
- TGI (HOP-92 NSCLC): > 100 µM
- TGI (ACHN renal): > 100 µM
- TGI (OVCAR-5 ovarian): > 100 µM
- TGI (MDA-MB-435): > 100 µM
- TGI (NCI/ADR-RES ovarian): > 100 µM
- TGI (OVCAR-3 ovarian): > 100 µM
- TGI (SK-MEL-2 melanoma): > 100 µM
- TGI (RPMI-8226 leukemia): > 100 µM
- TGI (HOP-62 NSCLC): > 100 µM
- TGI (MCF7 breast): > 100 µM
- TGI (RXF 393 renal): > 100 µM
- TGI (NCI-H460 lung): > 100 µM
- TGI (CAKI-1 renal): > 100 µM
- TGI (UO-31 renal): > 100 µM
- TGI (NCI-H522 lung): > 100 µM
- TGI (HCT-15 colon): > 100 µM
- TGI (SF-295 CNS): > 100 µM
- TGI (HCT-116 colon): > 100 µM
- TGI (SK-OV-3 ovarian): > 100 µM
- TGI (SF-268 CNS): > 100 µM
- TGI (HT29 colon): > 100 µM
- TGI (NCI-H23 lung): > 100 µM
- TGI (COLO 205 colon): > 100 µM
- TGI (EKVX NSCLC): > 100 µM
- TGI (A498 renal): > 100 µM
- TGI (UACC-62 melanoma): > 100 µM
- TGI (MDA-N): > 100 µM
- TGI (MOLT-4 leukemia): > 100 µM
- TGI (HS 578T breast): > 100 µM
- TGI (TK-10 renal): > 100 µM

Structure (SMILES): CC(=O)Nc1ccccc1C=C1c2ccccc2-c2ccccc21
- TGI (SNB-75 CNS): 33.7 µM
- TGI (PC-3 prostate): > 100 µM
- TGI (HCC-2998 colon): > 100 µM
- TGI (K-562 leukemia): > 100 µM
- TGI (BT-549 breast): 98.3 µM
- TGI (DU-145 prostate): > 100 µM
- TGI (U251 CNS): 60.4 µM
- TGI (SNB-19 CNS): 45.8 µM
- TGI (IGROV1 ovarian): > 100 µM
- TGI (SF-539 CNS): 26.5 µM
- TGI (SK-MEL-28 melanoma): > 100 µM
- TGI (SK-MEL-5 melanoma): > 100 µM
- TGI (KM12 colon): > 100 µM
- TGI (SW-620 colon): > 100 µM
- TGI (786-0 renal): 45.2 µM
- TGI (OVCAR-8 ovarian): 47.4 µM
- TGI (M14 melanoma): > 100 µM
- TGI (UACC-257 melanoma): > 100 µM
- TGI (A549 NSCLC): > 100 µM
- TGI (MALME-3M melanoma): > 100 µM
- TGI (CCRF-CEM leukemia): > 100 µM
- TGI (LOX IMVI melanoma): > 100 µM
- TGI (MDA-MB-231 breast): 58.2 µM
- TGI (T-47D breast): > 100 µM
- TGI (SN12C renal): 53.6 µM
- TGI (OVCAR-4 ovarian): > 100 µM
- TGI (ACHN renal): > 100 µM
- TGI (OVCAR-5 ovarian): > 100 µM
- TGI (MDA-MB-435): > 100 µM
- TGI (NCI/ADR-RES ovarian): 66.7 µM
- TGI (OVCAR-3 ovarian): 73 µM
- TGI (SK-MEL-2 melanoma): > 100 µM
- TGI (RPMI-8226 leukemia): > 100 µM
- TGI (HOP-62 NSCLC): 42.9 µM
- TGI (MCF7 breast): 50.3 µM
- TGI (RXF 393 renal): 42.3 µM
- TGI (NCI-H460 lung): > 100 µM
- TGI (CAKI-1 renal): > 100 µM
- TGI (UO-31 renal): 38.5 µM
- TGI (NCI-H522 lung): > 100 µM
- TGI (HCT-15 colon): > 100 µM
- TGI (SF-295 CNS): 46.2 µM
- TGI (HCT-116 colon): > 100 µM
- TGI (SF-268 CNS): > 100 µM
- TGI (SR leukemia): > 100 µM
- TGI (HT29 colon): > 100 µM
- TGI (NCI-H23 lung): > 100 µM
- TGI (COLO 205 colon): > 100 µM
- TGI (EKVX NSCLC): > 100 µM
- TGI (A498 renal): > 100 µM
- TGI (UACC-62 melanoma): > 100 µM
- TGI (NCI-H226 lung): 66.8 µM
- TGI (MDA-N): > 100 µM
- TGI (MOLT-4 leukemia): > 100 µM
- TGI (HS 578T breast): > 100 µM
- TGI (HL-60(TB) leukemia): > 100 µM
- TGI (TK-10 renal): > 100 µM

Structure (SMILES): C/C(=N\NC(=S)NC1CCCC1)c1ccccn1
- TGI (SNB-75 CNS): > 100 µM
- TGI (PC-3 prostate): > 100 µM
- TGI (HCC-2998 colon): > 100 µM
- TGI (BT-549 breast): 63.9 µM
- TGI (DU-145 prostate): > 43 µM
- TGI (U251 CNS): > 100 µM
- TGI (SNB-19 CNS): > 100 µM
- TGI (IGROV1 ovarian): > 44.1 µM
- TGI (SF-539 CNS): 7.52 µM
- TGI (SK-MEL-28 melanoma): > 100 µM
- TGI (SK-MEL-5 melanoma): 13.2 µM
- TGI (KM12 colon): > 83.2 µM
- TGI (SW-620 colon): > 100 µM
- TGI (786-0 renal): > 100 µM
- TGI (OVCAR-8 ovarian): > 22.4 µM
- TGI (M14 melanoma): 15.7 µM
- TGI (A549 NSCLC): > 53.6 µM
- TGI (MALME-3M melanoma): > 28.6 µM
- TGI (LOX IMVI melanoma): 17.8 µM
- TGI (MDA-MB-231 breast): > 57.2 µM
- TGI (T-47D breast): > 23.9 µM
- TGI (SN12C renal): > 100 µM
- TGI (OVCAR-4 ovarian): > 100 µM
- TGI (ACHN renal): 20.1 µM
- TGI (OVCAR-5 ovarian): > 100 µM
- TGI (MDA-MB-435): > 75.6 µM
- TGI (OVCAR-3 ovarian): 10.3 µM
- TGI (SK-MEL-2 melanoma): > 100 µM
- TGI (RPMI-8226 leukemia): 1.99 µM
- TGI (HOP-62 NSCLC): > 81.9 µM
- TGI (MCF7 breast): 28.7 µM
- TGI (RXF 393 renal): 29.1 µM
- TGI (NCI-H460 lung): > 19.9 µM
- TGI (CAKI-1 renal): > 100 µM
- TGI (UO-31 renal): 22.3 µM
- TGI (NCI-H522 lung): 42.4 µM
- TGI (HCT-15 colon): > 100 µM
- TGI (SF-295 CNS): > 43.6 µM
- TGI (HCT-116 colon): 3.48 µM
- TGI (SK-OV-3 ovarian): > 100 µM
- TGI (SF-268 CNS): > 100 µM
- TGI (HT29 colon): > 100 µM
- TGI (NCI-H23 lung): > 100 µM
- TGI (COLO 205 colon): 26.8 µM
- TGI (EKVX NSCLC): > 100 µM
- TGI (A498 renal): > 28 µM
- TGI (UACC-62 melanoma): 7.8 µM
- TGI (NCI-H226 lung): 15 µM
- TGI (MDA-N): 35.4 µM
- TGI (HS 578T breast): > 100 µM
- TGI (TK-10 renal): > 100 µM
